According to patent US10653670B2, “Use of indole compounds for fat reduction and skin and soft tissue tightening” (Alevere Medical Corporation, priority 2013, dated 2020):
Entries after “also recorded” stand apart in the source; their conditions may differ.

What was measured:
[1] = recent reports following clinical trials; cited from earlier work
[2] = system: fat pad (human fat graft); assay: Nude mouse study, injection into engrafted human fat pad; assay type: in vivo
Protocol: This example reports exemplary compounds reported in Example 1. A mouse study was performed to test compounds of the embodiments. Eight test compounds were injected. In addition to normal saline and compound diluent (DMSO plus excipients) (negative controls), positive controls included 1% sodium deoxycholate (DC, MasterPharm, Richmond Hill, N.Y.), phosphatidylcholine 25 mg/ml plus deoxycholate 12 mg/ml (PC/DC, PC25/DC 12, MasterPharm, Richmond Hill, N.Y.), and Aqualyx®, a sodium deoxycholate in a lactose carrier (Marllor International, Italy).
Seventy nude mice were chosen for a study of safety and efficacy of injectable lipolytic compounds. Human fat was harvested one hour prior to the injection procedure. 0.5 cc of fat was loaded into micro syringes. Engraftment took place under general anesthesia. Four weeks later, the fat pad size was measured and compounds injected precisely using a 6 mm meso needle in the center and 0.5 cm cephalad and caudad to the midpoint. Mice were sacrificed at one day, one week, two weeks and 4 weeks. […]
Each fat pad was measured and weighed on the analytical balance at the time of sacrifice. […]
Size reduction after compound injection was measured against the measurement taken just previous to injection of compounds. […] Compound dose was calculated based on the average weight of each mouse and was based on the maximum safe dose of PC/DC. […]

[3] = system: adipocytes over nerve cells, dermal cells, muscle cells, and endothelial cells; assay: LIVE/DEAD assay, tissue preference (adipocytes versus other cell types); assay type: cell-based, human; details: for tissue specificity / tissue preference: Example 2, FIGS. 5-8 and table, 2 and 5 hours in FIGS. 6-8
adipocytes [4] = assay: Histology of injected immediate ex-vivo abdominoplasty tissue; assay type: cell-based, human
Protocol: As the indole group has not been previously used for intralesional fat reduction, a method of obtaining histologic specimens had to be modified.
The tissue model described herein, therefore, was immediate ex-vivo abdominoplasty tissue that had been permitted for use by the surgical patient. Segments of abdominal skin and subcutaneous fat were injected with identified test compounds, plus a negative saline control and three positive controls: 1% deoxycholate, the commercial preparation of Aqualyx®, and the Network Lipolysis PC/DC formula.
Because there was no host; inflammatory changes would not be expected. This study was only performed to assess the immediacy of adipocyte changes, and to determine the method of action of each compound.

adipocytes [5] = assay: LIVE/DEAD calcein/ethidium bromide assay, adipocyte kill rate; assay type: cell-based, human; details: for adipocyte kill rate / aggressiveness: Example 2, FIGS. 5-8 and table; for Adipocyte, averaged ethidium numbers: kill rate (ethidium), all tissue types on the same plate
Protocol: (§1) The time and concentration dependent effects of drug substance on both cell viability and toxicity were evaluated using a two-color fluorescence assay that measures plasma membrane integrity and intracellular enzyme activity. Live cells are determined by the strong fluorescence of calcein AM upon enzymatic conversion. […] The ratio of ethidium to calcein fluorescence is an excellent measure of the relative amount of live and dead cells.
(§2) Initial screening was performed using a variety of cell viability and cytotoxicity assays, including Presto Blue® (Invitrogen, Grand Island, N.Y.), Alamar Blue® (Invitrogen, Grand Island, N.Y.), Cyto-Tox One® (Promega, Madison, Wis.), and Cell Titer Glo® (Promega, Madison, Wis.). […] An MTT terazolium assay was performed, as well as LDH and ATP based assays. […] The LIVE/DEAD® for mammalian cells assay was used. LIVE/DEAD® for mammalian cells assay is a calcein (live read)/ethidium bromide (dead) multiplex assay.
(§3) A sample of DMSO/PBS was a negative control. A sample of Aqualyx® was a positive control. In the table, 24M is phosphatidylcholine 25 mg/ml plus deoxycholate 12 mg/and 25N is C 50/DC24; these were positive controls. The numbers in the table refer to averaged ethidium numbers. The percentages represent the relative kill rate for each cell type when rated against the adipocyte kill rate for that compound. All tissue types were tested on the same plate against adipocytes in order to standardize results.
(§4) Over seventy compounds of the embodiments were tested for adipocytolysis, then for tissue preference. A consistent assay with multiplex information was a calcein/ethidium bromide assay that assesses cell viability and cell death simultaneously. Cell viability was checked using the Countess device. All plates were inoculated with 100 microliters of the appropriate cell types. A 6 well repeat was used to verify results. Cell types used included cultured human adult derived adipocytes, dermal fibroblasts, skeletal muscle cells, and endothelial cells (Cell Applications, Inc., San Diego, Calif.). Human peripheral nerve cells (Innoprot, Spain) were also used.
(§5) Compounds were formulated using a DMSO/PBS excipient. A 10 mg/ml concentration was used. One hundred microliters of test compound was inserted into 6 wells of 5 cell types, placed in adjacent rows. The plates were incubated for 4 hours. Indicator was added to each well, and plates were read at 45 minutes using a fluorescence spectrophotometer (Molecular Devices, Sunnyvale, Calif.).

dermal fibroblasts = assay type: cell-based; details: for Dermis, averaged ethidium numbers: kill rate (ethidium), same plate as adipocytes; for Dermis, relative kill rate rated against the adipocyte kill rate: percentage in brackets
Protocol: as §1, §2, §3, §4, §5

nerve cells = assay type: cell-based; details: for Nerve, averaged ethidium numbers: kill rate (ethidium), same plate as adipocytes; for Nerve, relative kill rate rated against the adipocyte kill rate: percentage in brackets
Protocol: as §1, §2, §3, §4, §5

skeletal muscle cells = assay: LIVE/DEAD calcein/ethidium bromide assay, muscle cell kill rate; assay type: cell-based, human; details: for Muscle, averaged ethidium numbers: kill rate (ethidium), same plate as adipocytes; for Muscle, relative kill rate rated against the adipocyte kill rate: percentage in brackets
Protocol: as §1, §2, §3, §4, §5

endothelial cells = assay: LIVE/DEAD calcein/ethidium bromide assay, endothelial cell kill rate; assay type: cell-based, human; details: for Endothelial, averaged ethidium numbers: kill rate (ethidium), same plate as adipocytes; for Endothelial, relative kill rate rated against the adipocyte kill rate: percentage in brackets
Protocol: as §1, §2, §3, §4, §5

Row | SMILES | tissue specificity / tissue preference [3] | histology finding / mechanism of action (adipocytes [4]; at 4 hours) | adipocyte kill rate / aggressiveness (adipocytes [5]) | Adipocyte, averaged ethidium numbers (adipocytes [5]) | Dermis, averaged ethidium numbers (dermal fibroblasts) | Dermis, relative kill rate rated against the adipocyte kill rate (dermal fibroblasts) | Nerve, averaged ethidium numbers (nerve cells) | Nerve, relative kill rate rated against the adipocyte kill rate (nerve cells) | Muscle, averaged ethidium numbers (skeletal muscle cells) | Muscle, relative kill rate rated against the adipocyte kill rate (skeletal muscle cells) | histology finding / mechanism of action (adipocytes [4]; at 12 hours) | Endothelial, averaged ethidium numbers (endothelial cells) | Endothelial, relative kill rate rated against the adipocyte kill rate (endothelial cells) | also measured
1 | C[C@H](CCC(=O)[O-])[C@H]1CC[C@H]2[C@@H]3CC[C@@H]4C[C@H](O)CC[C@]4(C)[C@H]3C[C@H](O)[C@]12C.[Na+] [1% deoxycholate, sodium deoxycholate] | indiscriminate | Cell wall lysis |  |  |  |  |  |  |  |  |  |  |  | instances of facial nerve palsy [1]: two; numbness with paresthesias, patients treated [1]: up to 40%; gross effect on fat pad graft ([2]; four weeks after injection): Visible and measurable fat reduction; gross effect on fat pad graft ([2]; one day after injection): Immediate necrosis
2 | O=C(O)c1cc2ccccc2[nH]1 [Compound 29, 1H-indole-2-carboxylic acid] | most strongly tissue preferential; also recorded: strongly adipocyte preferential |  | less aggressive; also recorded: equivalent to that of Compounds D and E | 83 | 9 | 11% | 15 | 18% | 14 | 17% | primarily an apoptotic mechanism | 8.5 | 10% | 
3 | c1ccc2[nH]ccc2c1 [Compound 33, 1H-indole] | moderate tissue specificity | pyroptotic activity | fairly low adipocyte kill rate | 32 | 17 | 53% | 17 | 53% | 18 | 56% |  | 18 | 56% | ethidium results for dermis, muscle and endothelial cells compared with adipocytes ([3]; 4 time points over 24 hours): less than half toxic; tissue preference ([3]; Example 5, FIG. 12, 10 mg/ml, 4 hours incubation): about 50%
4 | Brc1ccc2[nH]ccc2c1 [Compound 38, 5-bromo-1H-indole] | moderate preference | primarily cytolysis | aggressive adipocyte killer | 558 | 148 | 27% | 551 | 99% | 362 | 65% |  | 289 | 50% | toxicity to dermis / dermal fibroblasts (dermal fibroblasts; Example 2, FIGS. 6-8): not nearly as toxic; toxicity to nerve cells (nerve cells; Example 2, FIGS. 6-8): toxic to nerve cells
5 | O=C(O)Cc1c[nH]c2ccc(Br)cc12 [Compound 41, 2-(5-bromo-1H-indol-3-yl) acetic acid] | most strongly tissue preferential; also recorded: high tissue preference index |  | moderate; also recorded: strong adipocytolytic capability | 149 | 27 | 18% | 32 | 20% | 40 | 27% | Pyroptotic mechanism | 44 | 30% | 
